Values belong to the compound of their own block, whether it stands above or below them. Active and inactive are the calls of the source. The rule behind the calls is not given here.
Legend:
Quadruplex DNA [1] = assay: Binding affinity to human G-quadruplex telomeric DNA F21T (5'-duplex FAM-GGGTTAGGGTTAGGGTTAGGG-TAM-3') assessed as stabilization by measuring change in melting temperature at 5 uM by FRET melting assay; type: nucleic-acid assay
Quadruplex DNA [2] = assay: Binding affinity to human G-quadruplex telomeric DNA F25CebT (5'-duplex FAM-AGGGTGGGTGTAAGTGTGGGTGGGT-TAM-3') assessed as stabilization by measuring change in melting temperature at 5 uM by FRET melting assay; type: nucleic-acid assay
NHDF = assay: (§1) Cytotoxicity against human NHDF cells assessed as cell viability at 10 uM after 48 hrs by MTT assay; type: toxicity, cell-based; details: nhdf, 48 h, 10 µM
A549 = assay: Antiproliferative activity against human A549 cells assessed as cell viability at 10 uM after 48 hrs by MTT assay; type: functional; details: for viability at 10 µM: read-out: Activity
NCI-H1299 = assay: Antiproliferative activity against human NCI-H1299 cells assessed as cell viability at 10 uM after 48 hrs by MTT assay; type: functional
Quadruplex DNA [3] = assay: Binding affinity to human G-quadruplex telomeric DNA F21CTAT (5'-duplex FAM-GGGCTAGGGCTAGGGCTAGGG-TAM-3') assessed as stabilization by measuring change in melting temperature at 5 uM by FRET melting assay; type: nucleic-acid assay
Quadruplex DNA [4] = assay: Binding affinity to G-quadruplex telomeric DNA 22AG (5'-duplex AGGGTTAGGGTTAGGGTTAGGG-3') (unknown origin) assessed as stabilization by measuring change in melting temperature at 0.5 M by circular dichroism (CD) spectroscopy; type: nucleic-acid assay
Quadruplex DNA [5] = assay: Binding affinity to G-quadruplex telomeric DNA 22AG (5'-duplex AGGGTTAGGGTTAGGGTTAGGG-3') (unknown origin) assessed as stabilization by measuring change in melting temperature at 1 M by circular dichroism (CD) spectroscopy; type: nucleic-acid assay
Quadruplex DNA [6] = assay: Binding affinity to G-quadruplex telomeric DNA 22AG (5'-duplex AGGGTTAGGGTTAGGGTTAGGG-3') (unknown origin) assessed as stabilization by measuring change in melting temperature at 3 M by circular dichroism (CD) spectroscopy; type: nucleic-acid assay
Quadruplex DNA [7] = assay: Binding affinity to G-quadruplex telomeric DNA 22AG (5'-duplex AGGGTTAGGGTTAGGGTTAGGG-3') (unknown origin) assessed as stabilization by measuring change in melting temperature at 5 M by circular dichroism (CD) spectroscopy; type: nucleic-acid assay
Quadruplex DNA [8] = assay: Binding affinity to G-quadruplex telomeric DNA 22CTA (5'-duplex AGGGCTAGGGCTAGGGCTAGGG-3') (unknown origin) assessed as stabilization by measuring change in melting temperature at 0.5 M by circular dichroism (CD) spectroscopy; type: nucleic-acid assay
Quadruplex DNA [9] = assay: Binding affinity to G-quadruplex telomeric DNA 22CTA (5'-duplex AGGGCTAGGGCTAGGGCTAGGG-3') (unknown origin) assessed as stabilization by measuring change in melting temperature at 1 M by circular dichroism (CD) spectroscopy; type: nucleic-acid assay
Quadruplex DNA [10] = assay: Binding affinity to G-quadruplex telomeric DNA 22CTA (5'-duplex AGGGCTAGGGCTAGGGCTAGGG-3') (unknown origin) assessed as stabilization by measuring change in melting temperature at 3 M by circular dichroism (CD) spectroscopy; type: nucleic-acid assay
Quadruplex DNA [11] = assay: Binding affinity to G-quadruplex telomeric DNA 22CTA (5'-duplex AGGGCTAGGGCTAGGGCTAGGG-3') (unknown origin) assessed as stabilization by measuring change in melting temperature at 5 M by circular dichroism (CD) spectroscopy; type: nucleic-acid assay
Quadruplex DNA [12] = assay: Binding affinity to G-quadruplex telomeric DNA 26ceb (5'-duplex AAGGGTGGGTGTAAGTGTGGGTGGGT-3') (unknown origin) assessed as stabilization by measuring change in melting temperature at 0.5 M by circular dichroism (CD) spectroscopy; type: nucleic-acid assay
Quadruplex DNA [13] = assay: Binding affinity to G-quadruplex telomeric DNA 26ceb (5'-duplex AAGGGTGGGTGTAAGTGTGGGTGGGT-3') (unknown origin) assessed as stabilization by measuring change in melting temperature at 1 M by circular dichroism (CD) spectroscopy; type: nucleic-acid assay
Quadruplex DNA [14] = assay: Binding affinity to G-quadruplex telomeric DNA 26ceb (5'-duplex AAGGGTGGGTGTAAGTGTGGGTGGGT-3') (unknown origin) assessed as stabilization by measuring change in melting temperature at 3 M by circular dichroism (CD) spectroscopy; type: nucleic-acid assay
Quadruplex DNA [15] = assay: Binding affinity to G-quadruplex telomeric DNA 26ceb (5'-duplex AAGGGTGGGTGTAAGTGTGGGTGGGT-3') (unknown origin) assessed as stabilization by measuring change in melting temperature at 5 M by circular dichroism (CD) spectroscopy; type: nucleic-acid assay
[16] = as §1; type: toxicity, cell-based; details: NHDF cells, read-out: Activity
Quadruplex DNA [17] = assay: Binding affinity to G-quadruplex telomeric DNA FdxT (5'-duplex FAM-TATAGCTAT-PEG-TATAGCTATA-TAM-3') assessed as stabilization by measuring change in melting temperature at 5 uM by FRET melting assay; type: nucleic-acid assay

ΔTm (Quadruplex DNA [1]): 1.1 °C | ΔTm (Quadruplex DNA [2]): 0.7 °C
SMILES: CCCCCC/N=C/c1ccc2ccc3ccc(/C=N/CCCCCC)nc3c2n1
Activity (NHDF): Non-Toxic

ΔTm (Quadruplex DNA [1]): 1.8 °C | ΔTm (Quadruplex DNA [2]): 1.2 °C
SMILES: NNC(=O)c1ccc2ccc3ccc(C(=O)NN)nc3c2n1
Activity (A549): Active | Activity (NCI-H1299): Active

ΔTm (Quadruplex DNA [1]): 1.2 °C | ΔTm (Quadruplex DNA [2]): 0.4 °C
SMILES: OCCNCc1ccc2ccc3ccc(CNCCO)nc3c2n1

ΔTm (Quadruplex DNA [1]): 1 °C | ΔTm (Quadruplex DNA [2]): 2.6 °C
SMILES: O=C(N/N=C/c1c(O)ccc2ccccc12)c1ccc2ccc3ccc(C(=O)N/N=C/c4c(O)ccc5ccccc45)nc3c2n1

ΔTm (Quadruplex DNA [1]): 12 °C | ΔTm (Quadruplex DNA [3]): 5.2 °C | ΔTm (Quadruplex DNA [2]): 7.8 °C | ΔTm (Quadruplex DNA [4]): 0.7 °C | ΔTm (Quadruplex DNA [5]): 2.1 °C | ΔTm (Quadruplex DNA [6]): 3.4 °C | ΔTm (Quadruplex DNA [7]): 3.5 °C | ΔTm (Quadruplex DNA [8]): 0.6 °C | ΔTm (Quadruplex DNA [9]): 1.3 °C | ΔTm (Quadruplex DNA [10]): 1.9 °C | ΔTm (Quadruplex DNA [11]): 2.1 °C | ΔTm (Quadruplex DNA [12]): 0.9 °C | ΔTm (Quadruplex DNA [13]): 2.1 °C | ΔTm (Quadruplex DNA [14]): 5.4 °C | ΔTm (Quadruplex DNA [15]): 7.6 °C
SMILES: NCCNCc1ccc2ccc3ccc(CNCCN)nc3c2n1.O=C(O)C(F)(F)F.O=C(O)C(F)(F)F.O=C(O)C(F)(F)F.O=C(O)C(F)(F)F
Activity (NHDF): Toxic

ΔTm (Quadruplex DNA [1]): 0.6 °C | ΔTm (Quadruplex DNA [2]): 0.6 °C
SMILES: CC(C)(C)OC(=O)NCC/N=C/c1ccc2ccc3ccc(/C=N/CCNC(=O)OC(C)(C)C)nc3c2n1

ΔTm (Quadruplex DNA [1]): 7.2 °C | ΔTm (Quadruplex DNA [3]): 2.9 °C | ΔTm (Quadruplex DNA [2]): 1.8 °C | ΔTm (Quadruplex DNA [4]): 0.5 °C | ΔTm (Quadruplex DNA [5]): 0.3 °C | ΔTm (Quadruplex DNA [6]): 2.5 °C | ΔTm (Quadruplex DNA [7]): 1.4 °C | ΔTm (Quadruplex DNA [8]): 0.4 °C | ΔTm (Quadruplex DNA [9]): 1.3 °C | ΔTm (Quadruplex DNA [10]): 2.9 °C | ΔTm (Quadruplex DNA [11]): 4.3 °C | ΔTm (Quadruplex DNA [12]): 3.4 °C | ΔTm (Quadruplex DNA [13]): 4.6 °C | ΔTm (Quadruplex DNA [14]): 9.7 °C | ΔTm (Quadruplex DNA [15]): 11.7 °C
SMILES: NCCNC(=O)c1ccc2ccc3ccc(C(=O)NCCN)nc3c2n1
viability at 10 µM (A549): 24.5% | Activity (NCI-H1299): Active | viability at 48 h, 10 µM [16]: 75.1%

ΔTm (Quadruplex DNA [1]): 0.7 °C | ΔTm (Quadruplex DNA [2]): 0.8 °C
SMILES: CC(C)(C)OC(=O)NCCNC(=O)c1ccc2ccc3ccc(C(=O)NCCNC(=O)OC(C)(C)C)nc3c2n1
Activity (A549): Active | Activity (NCI-H1299): Active

ΔTm (Quadruplex DNA [1]): 0.5 °C | ΔTm (Quadruplex DNA [2]): 0.4 °C
SMILES: O=C1NCCOCCOCCNC(=O)c2ccc3ccc4ccc1nc4c3n2
Activity (A549): Active | Activity (NCI-H1299): Active

ΔTm (Quadruplex DNA [1]): > 30 °C | ΔTm (Quadruplex DNA [3]): > 30 °C | ΔTm (Quadruplex DNA [2]): > 30 °C | ΔTm (Quadruplex DNA [17]): 0.6 °C
SMILES: C[n+]1cc(NC(=O)c2ccc3ccc4ccc(C(=O)Nc5cc6ccccc6[n+](C)c5)nc4c3n2)cc2ccccc21

ΔTm (Quadruplex DNA [1]): 5.3 °C
SMILES: CCCCCCNCc1ccc2ccc3ccc(CNCCCCCC)nc3c2n1
viability at 10 µM (A549): 27.4% | viability at 10 µM (NCI-H1299; read-out: Activity): 42.9% | viability at 48 h, 10 µM [16]: 22.4%

ΔTm (Quadruplex DNA [1]): 0.8 °C | ΔTm (Quadruplex DNA [2]): 0.7 °C
SMILES: COc1ccc(/N=C/c2ccc3ccc4ccc(/C=N/c5ccc(OC)cc5)nc4c3n2)cc1

ΔTm (Quadruplex DNA [1]): 9.2 °C | ΔTm (Quadruplex DNA [3]): 4.1 °C | ΔTm (Quadruplex DNA [2]): 3.8 °C | ΔTm (Quadruplex DNA [4]): 0.5 °C | ΔTm (Quadruplex DNA [5]): 0.9 °C | ΔTm (Quadruplex DNA [6]): 1.5 °C | ΔTm (Quadruplex DNA [7]): 1.1 °C | ΔTm (Quadruplex DNA [8]): 0.9 °C | ΔTm (Quadruplex DNA [9]): 1.8 °C | ΔTm (Quadruplex DNA [10]): 2.6 °C | ΔTm (Quadruplex DNA [11]): 3.1 °C | ΔTm (Quadruplex DNA [12]): 1.1 °C | ΔTm (Quadruplex DNA [13]): 2.3 °C | ΔTm (Quadruplex DNA [14]): 5.9 °C | ΔTm (Quadruplex DNA [15]): 8.1 °C
SMILES: COc1ccc(NCc2ccc3ccc4ccc(CNc5ccc(OC)cc5)nc4c3n2)cc1
Activity (NHDF): Toxic

ΔTm (Quadruplex DNA [1]): 1.2 °C | ΔTm (Quadruplex DNA [2]): 0.9 °C
SMILES: CC(C)(C)OC(=O)NCCNCc1ccc2ccc3ccc(CNCCNC(=O)OC(C)(C)C)nc3c2n1

ΔTm (Quadruplex DNA [1]): 1.5 °C | ΔTm (Quadruplex DNA [2]): 1.2 °C
SMILES: CC/N=C/c1ccc2ccc3ccc(/C=N/CC)nc3c2n1

ΔTm (Quadruplex DNA [1]): 0.4 °C | ΔTm (Quadruplex DNA [2]): 1.7 °C
SMILES: O=C1NCCNCCNC(=O)c2ccc3ccc4ccc1nc4c3n2
Activity (A549): Active | Activity (NCI-H1299): Active

ΔTm (Quadruplex DNA [1]): 1.1 °C | ΔTm (Quadruplex DNA [2]): 0.9 °C
SMILES: OCC/N=C/c1ccc2ccc3ccc(/C=N/CCO)nc3c2n1
